According to paper PMC12856912, “Structure-Guided Semisynthesis of Blasticidin S–Amicetin Chimeras as Selective Ribosome Inhibitors” (Journal of the American Chemical Society, 2026):
Values after ≈ are worked out from the molar mass of the structure shown.

How the values were obtained:
MRSA USA-300 = format: cell-based, Staphylococcus aureus; conditions: for bacteriostatic or bactericidal effect in time-kill assay: 5× MIC and 10× MIC
Experimental: MRSA USA-300 was grown overnight in cation- adjusted Muell er-Hinton broth (CAMHB), then subcultured into fresh CAMHB and incubated aerobi cally at 37°C until reaching the logarithmic phase, corresponding to an optical density (OD₆₀₀) of 0.2. The bacterial cultures were further diluted to adjust to a final concentration of 5 × 10⁵ CFU/mL in CAMHB. P3, P5, vancomycin and linezolid, were added at concentrations of 5× and 10× MIC. A DMSO-treated […]
culture serv ed as an untreated control. The cultures were aerobically maintai ned at 37°C in shaking incubator. At specifi c sampling times, aliquots were collected, resuspended in phosphate-buffered saline (PBS) and distributed to three replicates on tryptic soy agar (TSA). After a 24-hour incubation period at 37°C, the number of colony- forming units (CFUs) was evaluated.
F i g u re S 1. Time kill results against MRSA USA 300 at 5X and 10X MIC. Compound P3 ( 38) is shown as red squares, compound P5( 40) is shown as green tri angles. Vancomycin (inverted purple triangle) is used as a b act ericidal control and linezolid (orange diamond) as a bacteriostatic control with DMSO (blue circles ) as a neg ative control. […]

MRSA ATCC 43300 = assay: Antibacterial MIC assay, serial dilution; format: cell-based, Staphylococcus aureus; conditions: for Selectivity index (CC50/MIC) MRSA 43300: CC50 Vero cells / MIC; for MIC: Staphylococcus aureus, read-out: MIC MRSA ATCC 43300
In short: (§1)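 MIC is the lowest concentration giving >90% growth inhibition by OD600, normalized to doxycycline and vehicle controls. Compounds were serially diluted to final 128–1 μg/mL against cultures diluted to OD600 0.004 in CAMHB and incubated at 37 °C for 16–18 h (VRE 24 h).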

S. aureus ATCC 6538P = assay: Antibacterial MIC assay, serial dilution; format: cell-based, Staphylococcus aureus; conditions: for Selectivity index (CC50/MIC) S. aureus 6538P: CC50 Vero cells / MIC; for MIC: Staphylococcus aureus, ATCC 6538P / ATCC 6539P, read-out: MIC S. aureus ATCC 6539P
In short: as §1

S. aureus ΔNorA = assay: Antibacterial MIC assay, serial dilution; format: cell-based, Staphylococcus aureus; conditions: for Selectivity index (CC50/MIC) S. aureus ΔNorA: CC50 Vero cells / MIC; for MIC: Staphylococcus aureus, read-out: MIC S. aureus ∆NorA
In short: as §1

[1] = system: Methicillin resistant Staphylococcus epidermidis (MRSE) ATCC 35984 NRS101; assay: Antibacterial MIC assay, serial dilution; format: cell-based; conditions: for Selectivity index (CC50/MIC) MRSE 35984: CC50 Vero cells / MIC; for MIC: Staphylococcus epidermidis, read-out: MIC Methicillin resistant Staphylococcus epidermidis (MRSE) ATCC 35984 NRS101
[2] = system: Methicillin resistant S. aureus (MRSA) USA300; assay: Antibacterial MIC assay, serial dilution; format: cell-based, Staphylococcus aureus; conditions: for Selectivity index (CC50/MIC) MRSA USA300: CC50 Vero cells / MIC; for MIC: Staphylococcus aureus, read-out: MIC Methicillin resistant S. aureus (MRSA) USA300
[3] = system: Vancomycin resistant E. faecalis NR-31972 (VRE); assay: Antibacterial MIC assay, serial dilution; format: cell-based, Enterococcus faecalis; conditions: for Selectivity index (CC50/MIC) VRE NR-31972: CC50 Vero cells / MIC; for MIC: Enterococcus faecalis, VRE, 24 h, read-out: MIC Vancomycin resistant E. faecalis NR-31972 (VRE)
In short: as §1

[4] = system: Acinetobacter baumannii ATCC 17978; assay: Antibacterial MIC assay, serial dilution; format: cell-based; conditions: ATCC17978, range from biological replicates
In short: as §1

[5] = system: Enterococcus faecalis ATCC 29212; assay: Antibacterial MIC assay, serial dilution; format: cell-based; conditions: for Selectivity index (CC50/MIC) E. faecalis 29212: CC50 Vero cells / MIC; for MIC: Enterococcus faecalis, ATCC 29112 / ATCC 29212, 24 h, read-out: MIC E. faecalis ATCC 29112
[6] = system: Klebsiella pneumoniae ATCC 29665; assay: Antibacterial MIC assay, serial dilution; format: cell-based; conditions: for MIC: Klebsiella pneumoniae, ATCC29665, range from biological replicates, read-out: MIC K. pneumoniae ATCC-29665; for Selectivity index (CC50/MIC) K. pneumoniae: CC50 Vero cells / MIC
In short: as §1

Pseudomonas aeruginosa = assay: Antibacterial MIC assay, serial dilution; format: cell-based; conditions: for Selectivity index (CC50/MIC) P. aeruginosa: CC50 Vero cells / MIC; for MIC: Pseudomonas aeruginosa, range from biological replicates, read-out: MIC P. aeruginosa
In short: as §1

[7] = system: Vancomycin resistant Enterococcus faecium NR-31909 (VRE); assay: Antibacterial MIC assay, serial dilution; format: cell-based; conditions: for MIC: Enterococcus faecium, VRE, 24 h, read-out: MIC Vancomycin resistant Enterococcus faecium NR-31909 (VRE); for Selectivity index (CC50/MIC) VRE NR-31909: CC50 Vero cells / MIC
In short: as §1

[8] = system: Escherichia coli BAA-2452; assay: Antibacterial MIC assay, serial dilution; format: cell-based; conditions: BAA2452, read-out: MIC Escherichia coli BAA-2452
[9] = Cytotoxicity assay (MTS/PMS); format: cell-based; conditions: monkey, Vero cells (monkey kidney epithelial cells); 24 h treatment, MTS/PMS, average of three biological replicates; read-out: CC50 against Vero cells
In short: (§2)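 CC50 (µg/mL) was taken as the compound level that lowered vehicle-normalized viability to 50%, from MTS/PMS absorbance at 490 nm after 4 h with reagent. Monkey kidney Vero cells in DMEM/10% FBS received serial dilutions for 24 h at 37 °C, in three biological replicates.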

Vero cells = assay: Cytotoxicity assay (MTS/PMS); format: cell-based; conditions: Vero cells, chimera vs parent of its series
In short: as §2

CN[C@H](CC(C)C)C(=O)N[C@H]1C(=O)N[C@@H](CC(N)=O)C(=O)N[C@H]2C(=O)N[C@H]3C(=O)N[C@H](C(=O)N[C@H](C(=O)O)c4cc(O)cc(O)c4-c4cc3ccc4O)[C@H](O)c3ccc(c(Cl)c3)Oc3cc2cc(c3O[C@@H]2O[C@H](CO)[C@@H](O)[C@H](O)[C@H]2O[C@H]2C[C@](C)(N)[C@H](O)[C@H](C)O2)Oc2ccc(cc2Cl)[C@H]1O [vancomycin, reference compound]
bacteriostatic or bactericidal effect in time-kill assay (MRSA USA-300): bactericidal activity
time to bactericidal activity (MRSA USA-300; time-kill assay): ≤ 8 h

CC(=O)Nc1ccc(C(=O)Nc2ccn([C@H]3C=C[C@H](NC(=O)C[C@@H](N)CCN(C)C(=N)N)[C@@H](C(=O)O)O3)c(=O)n2)cc1 [Blastimidine C4]
Selectivity index (CC50/MIC) MRSA 43300 (MRSA ATCC 43300): <1.6
MIC (MRSA ATCC 43300): > 128 µg/mL
Selectivity index (CC50/MIC) S. aureus 6538P (S. aureus ATCC 6538P): <1.6
MIC (S. aureus ATCC 6538P): > 128 µg/mL
Selectivity index (CC50/MIC) S. aureus ΔNorA (S. aureus ΔNorA): <1.6
MIC (S. aureus ΔNorA): > 128 µg/mL
Selectivity index (CC50/MIC) MRSE 35984 [1]: <1.6
MIC [1]: > 128 µg/mL
Selectivity index (CC50/MIC) MRSA USA300 [2]: <1.6
MIC [2]: > 128 µg/mL
Selectivity index (CC50/MIC) VRE NR-31972 [3]: <1.6
MIC [3]: > 128 µg/mL
MIC [4]: > 128 µg/mL
Selectivity index (CC50/MIC) E. faecalis 29212 [5]: <1.6
MIC [5]: > 128 µg/mL
MIC [6]: 128 µg/mL (≈ 219 µM)
Selectivity index (CC50/MIC) P. aeruginosa (Pseudomonas aeruginosa): <1.6
MIC (Pseudomonas aeruginosa): > 128 µg/mL
MIC [7]: > 128 µg/mL
MIC [8]: > 128 µg/mL
CC50 at 24 h [9]: 203 µg/mL (≈ 348 µM)
fold lower cytotoxicity relative to parent molecule (Vero cells): > 10 fold

CC(=O)NC[C@H]1CN(c2ccc(N3CCOCC3)c(F)c2)C(=O)O1 [linezolid, reference compound]
bacteriostatic or bactericidal effect in time-kill assay (MRSA USA-300): bacteriostatic activity

CNc1ccc(C(=O)Nc2ccn([C@H]3C=C[C@H](NC(=O)C[C@@H](N)CCN(C)C(=N)N)[C@@H](C(N)=O)O3)c(=O)n2)cc1 [Blastimidine A3]
Selectivity index (CC50/MIC) MRSA 43300 (MRSA ATCC 43300): 1.5
MIC (MRSA ATCC 43300): 16 µg/mL (≈ 28.8 µM)
Selectivity index (CC50/MIC) S. aureus 6538P (S. aureus ATCC 6538P): 2.3
MIC (S. aureus ATCC 6538P): 8 to 16 µg/mL (≈ 14.4 to 28.8 µM)
Selectivity index (CC50/MIC) S. aureus ΔNorA (S. aureus ΔNorA): 1.5
MIC (S. aureus ΔNorA): 16 µg/mL (≈ 28.8 µM)
Selectivity index (CC50/MIC) MRSE 35984 [1]: 1.5
MIC [1]: 16 µg/mL (≈ 28.8 µM)
Selectivity index (CC50/MIC) MRSA USA300 [2]: 3.0
MIC [2]: 8 µg/mL (≈ 14.4 µM)
Selectivity index (CC50/MIC) VRE NR-31972 [3]: 0.8
MIC [3]: 32 µg/mL (≈ 57.7 µM)
MIC [4]: > 128 µg/mL
Selectivity index (CC50/MIC) E. faecalis 29212 [5]: 1.5
MIC [5]: 16 µg/mL (≈ 28.8 µM)
Selectivity index (CC50/MIC) K. pneumoniae [6]: 0.8
MIC [6]: 32 µg/mL (≈ 57.7 µM)
Selectivity index (CC50/MIC) P. aeruginosa (Pseudomonas aeruginosa): <0.2
MIC (Pseudomonas aeruginosa): > 128 µg/mL
Selectivity index (CC50/MIC) VRE NR-31909 [7]: 2.0
MIC [7]: 8 to 16 µg/mL (≈ 14.4 to 28.8 µM)
MIC [8]: 32 µg/mL (≈ 57.7 µM)
CC50 at 24 h [9]: 24 µg/mL (≈ 43.3 µM)

CN(CC[C@H](N)CC(=O)N[C@H]1C=C[C@H](n2ccc(NC(=O)c3ccc(NC(=O)[C@@](C)(N)CO)cc3)nc2=O)O[C@@H]1C(N)=O)C(=N)N [Blastimidine A5]
Selectivity index (CC50/MIC) MRSA 43300 (MRSA ATCC 43300): 0.5
MIC (MRSA ATCC 43300): 128 µg/mL (≈ 199 µM)
Selectivity index (CC50/MIC) S. aureus 6538P (S. aureus ATCC 6538P): 1.0
MIC (S. aureus ATCC 6538P): 64 µg/mL (≈ 99.7 µM)
Selectivity index (CC50/MIC) S. aureus ΔNorA (S. aureus ΔNorA): 0.5
MIC (S. aureus ΔNorA): 128 µg/mL (≈ 199 µM)
Selectivity index (CC50/MIC) MRSE 35984 [1]: 0.5
MIC [1]: 128 µg/mL (≈ 199 µM)
Selectivity index (CC50/MIC) MRSA USA300 [2]: 0.5
MIC [2]: 128 µg/mL (≈ 199 µM)
Selectivity index (CC50/MIC) VRE NR-31972 [3]: <0.5
MIC [3]: > 128 µg/mL
MIC [4]: > 128 µg/mL
Selectivity index (CC50/MIC) E. faecalis 29212 [5]: 1.0
MIC [5]: 64 µg/mL (≈ 99.7 µM)
Selectivity index (CC50/MIC) K. pneumoniae [6]: 2.0
MIC [6]: 32 µg/mL (≈ 49.9 µM)
Selectivity index (CC50/MIC) P. aeruginosa (Pseudomonas aeruginosa): <0.5
MIC (Pseudomonas aeruginosa): > 128 µg/mL
Selectivity index (CC50/MIC) VRE NR-31909 [7]: 2.0
MIC [7]: 32 µg/mL (≈ 49.9 µM)
MIC [8]: 32 µg/mL (≈ 49.9 µM)
CC50 at 24 h [9]: 65 µg/mL (≈ 101 µM)

CN(CC[C@H](N)CC(=O)N[C@H]1C=C[C@H](n2ccc(N)nc2=O)O[C@@H]1C(N)=O)C(=N)N [Blastimidine A1, P10, reference compound]
Selectivity index (CC50/MIC) MRSA 43300 (MRSA ATCC 43300): 0.2
MIC (MRSA ATCC 43300): 32 µg/mL (≈ 75.9 µM)
Selectivity index (CC50/MIC) S. aureus 6538P (S. aureus ATCC 6538P): 0.2
MIC (S. aureus ATCC 6538P): 32 µg/mL (≈ 75.9 µM)
Selectivity index (CC50/MIC) S. aureus ΔNorA (S. aureus ΔNorA): 0.1
MIC (S. aureus ΔNorA): 128 µg/mL (≈ 304 µM)
Selectivity index (CC50/MIC) MRSE 35984 [1]: 0.2
MIC [1]: 32 µg/mL (≈ 75.9 µM)
Selectivity index (CC50/MIC) MRSA USA300 [2]: 0.4
MIC [2]: 16 µg/mL (≈ 38 µM)
Selectivity index (CC50/MIC) VRE NR-31972 [3]: 0.1
MIC [3]: 64 µg/mL (≈ 152 µM)
MIC [4]: 32 µg/mL (≈ 75.9 µM)
Selectivity index (CC50/MIC) E. faecalis 29212 [5]: 0.2
MIC [5]: 32 µg/mL (≈ 75.9 µM)
Selectivity index (CC50/MIC) K. pneumoniae [6]: 0.2
MIC [6]: 32 µg/mL (≈ 75.9 µM)
Selectivity index (CC50/MIC) P. aeruginosa (Pseudomonas aeruginosa): 0.1
MIC (Pseudomonas aeruginosa): 64 µg/mL (≈ 152 µM)
Selectivity index (CC50/MIC) VRE NR-31909 [7]: 0.2
MIC [7]: 32 µg/mL (≈ 75.9 µM)
MIC [8]: 16 µg/mL (≈ 38 µM)
CC50 at 24 h [9]: 7 µg/mL (≈ 16.6 µM)
